Test results: US11591369B2, “Alpha(v)beta(6) integrin-binding peptides and methods of use thereof” (priority 2018, dated 2023)
Read-outs that look alike come from different tables or passages of the source. Where a SMILES comes first, the peptide text is derived from it. The star is where a group is joined. Benzoyl(4-F) = O=C(c1ccc(F)cc1)*

Assays:
αvβ6 integrin = target: T1, αvβ6 integrin (Homo sapiens, UniProt P06756+P18564); assay: Competitive binding ELISA against biotinylated LAP (BtLAP), αvβ6 integrin
T1 construct: All purified integrins were purchased from R&D Systems (MN, USA); purchased R&D Systems (MN, USA)

αvβ3 integrin = target: T2, αvβ3 integrin (Homo sapiens, UniProt P05106+P06756); assay: Competitive binding ELISA, αvβ3 integrin
T2 construct: All purified integrins were purchased from R&D Systems (MN, USA); purchased R&D Systems (MN, USA)

αvβ8 integrin = target: T3, αvβ8 integrin (Homo sapiens, UniProt P06756+P26012); assay: Competitive binding ELISA, αvβ8 integrin
T3 construct: All purified integrins were purchased from R&D Systems (MN, USA); purchased R&D Systems (MN, USA)

DX3puroβ6 (αvβ6+) cells = assay: [18F]-radiolabeled peptide cell binding and internalization, DX3puroβ6 (αvβ6+) cells; format: cell-based, human
[1] = Circular dichroism (CD) spectroscopy; format: physicochemical; details: for % Helical Content CD Buffer: 25 mM phosphate + 100 mM NaF; for % Helical Content CD Buffer + 30% TFE: buffer with 30% trifluoroethanol
[2] = tested on: αvβ6-expressing human tumors; details: mouse, in vivo; cited from earlier work

Row | Compound | IC50 (αvβ6 integrin) [nM] | IC50 (αvβ3 integrin) [nM] | IC50 (αvβ8 integrin) [nM] | DX3puroβ6 (αvβ6+)/DX3puro (αvβ6−) selectivity ratio (DX3puroβ6 (αvβ6+) cells; cell binding, 1 hour) | % Helical Content CD Buffer [1] [%] | % Helical Content CD Buffer + 30% TFE [1] [%] | binding to DX3puroβ6 (αvβ6+) cells (DX3puroβ6 (αvβ6+) cells; % of total activity, 1 hour, 37° C.) [%] | DX3puroβ6 (αvβ6+)/DX3puro (αvβ6−) selectivity ratio (DX3puroβ6 (αvβ6+) cells) | unmetabolized peptide in urine [2]
1 | CC(C)C[C@H](NC(=O)[C@H](CC(=O)O)NC(=O)CNC(=O)[C@H](CCCNC(=N)N)NC(=O)c1ccc(F)cc1)C(=O)N[C@@H](C)C(=O)N[C@@H](CC(=O)O)C(=O)N[C@@H](CC(C)C)C(=O)N[C@@H](CCCNC(=N)N)C(=O)N[C@@H](CCC(N)=O)C(=O)N[C@@H](CCCCN)C(=O)N[C@H](C(=O)N[C@@H](C)C(=O)N[C@@H](CCCNC(=N)N)C(=O)N[C@H](C(N)=O)[C@@H](C)O)C(C)C [P3Q] ({Benzoyl(4-F)}-RGDLADLRQKVART-NH2) | 4 ± 1 | > 100000 | 20 ± 3 | 11.8 ± 0.4:1 | 14.7 | 30 |  |  | 
2 | CC(C)C[C@H](NC(=O)[C@H](CC(=O)O)NC(=O)CNC(=O)[C@@H](N)CCCNC(=N)N)C(=O)N[C@@H](C)C(=O)N[C@@H](CC(=O)O)C(=O)N[C@@H](CC(C)C)C(=O)N[C@@H](CCCNC(=N)N)C(=O)N[C@@H](CCCCNC(=O)c1ccc(F)cc1)C(N)=O [P3] (H-RGDLADLRK(Benzoyl(4-F))-NH2) | 420 ± 70 | > 100000 | 200 ± 20 | 1.4±0.2 :1 | 11.6 | 7 | 10.8±1.4 |  | 
3 | FB-NAVPNLRGDLQVLAQKVART [A20FMDV2, reference compound] |  |  |  |  |  |  |  | 10:1 | no unmetabolized peptide was detected
